Experimental data published in US20190134005A1 (BioMarin Pharmaceutical Inc., priority 2016, published 2019).

These molecules were tested against T1, human CGT (Homo sapiens, UniProt Q16880) (assay: Assay 1: CGT Enzymatic Assay (RapidFire/MS/MS, 0.01% Tween 80)). Conditions: Table 1, Compounds of Formula (I) and Formula (II); CGT enzymatic assay, C6-NBD-dihydro-galactosylceramide readout; read-out: IC50.
T1 sequence (Q16880 21-541): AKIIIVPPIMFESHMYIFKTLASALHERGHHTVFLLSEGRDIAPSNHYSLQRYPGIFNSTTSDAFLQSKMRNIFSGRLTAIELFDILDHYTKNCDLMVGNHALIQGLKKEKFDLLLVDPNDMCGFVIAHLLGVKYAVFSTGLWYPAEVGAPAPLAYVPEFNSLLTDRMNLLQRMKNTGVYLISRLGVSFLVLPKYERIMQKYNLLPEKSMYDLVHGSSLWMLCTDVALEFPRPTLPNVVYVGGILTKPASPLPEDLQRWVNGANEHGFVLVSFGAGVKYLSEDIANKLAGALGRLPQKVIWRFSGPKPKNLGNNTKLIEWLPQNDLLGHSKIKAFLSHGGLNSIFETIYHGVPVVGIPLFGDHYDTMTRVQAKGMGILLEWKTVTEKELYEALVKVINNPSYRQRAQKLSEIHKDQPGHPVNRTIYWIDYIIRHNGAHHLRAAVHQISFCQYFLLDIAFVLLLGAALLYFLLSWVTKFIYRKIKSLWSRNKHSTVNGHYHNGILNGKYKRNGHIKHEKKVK
Type: biochemical

Compound | IC50 [µM]
CC1(C(F)(F)F)N(c2ccc(Cl)cc2)C(=O)N(c2ccc(Cl)cc2)C1(O)c1cc(C#N)cc(C#N)c1 (racemic) [Example 331, 5-((5S)-1,3-bis(4-chlorophenyl)-4-hydroxy-5-methyl-2-oxo-5-(trifluoromethyl)imidazolidin-4-yl)isophthalonitrile and 5-((5R)-1,3-bis(4-chlorophenyl)-4-hydroxy-5-methyl-2-oxo-5-(trifluoromethyl)imidazolidin-4-yl)isophthalonitrile] | < 1
Cc1ccc(N2C(=O)N(c3ccc(C#N)cc3)C3(CCC3)C2(O)c2cccc(C#N)c2)cc1 (stereo not shown) [Compound 280, 3-(5-(4-cyanophenyl)-8-hydroxy-6-oxo-7-(p-tolyl)-5,7-diazaspiro[3.4]octan-8-yl)benzonitrile] | < 1
N#Cc1ccc(N2C(=O)N(c3ccc(C#N)cc3)C(O)(c3cccc(OC(F)(F)F)c3)C23CCCC3)cc1 (stereo not shown) [Example 326, 4,4′-(4-hydroxy-2-oxo-4-(3-(trifluoromethoxy)phenyl)-1,3-diazaspiro[4.4]nonane-1,3-diyl)dibenzonitrile] | < 1
Cc1ccc(N2C(=O)N(c3ccc(Cl)cc3)C3(COC3)C2(O)c2cccc(C#N)c2)cc1 (stereo not shown) [Compound 298, 3-(5-(4-chlorophenyl)-8-hydroxy-6-oxo-7-(p-tolyl)-2-oxa-5,7-diazaspiro[3.4]octan-8-yl)benzonitrile] | < 1
CCC[C@]1(C)N(c2ccc(C#N)cc2)C(=O)N(c2ccc(C#N)cc2)C1(O)c1cccc(OC(F)(F)F)c1 (stereo partly drawn) [Example 320-2, 4,4′-((5S)-4-hydroxy-5-methyl-2-oxo-5-propyl-4-(3-(trifluoromethoxy)phenyl)imidazolidine-1,3-diyl)dibenzonitrile] | < 1
Cc1ccc(N2C(=O)N(c3ccc(C)cc3)C(O)(c3cccc(OC(F)(F)F)c3)C23COC3)cc1 (stereo not shown) [Compound 284, 8-hydroxy-5,7-di-p-tolyl-8-(3-(trifluoromethoxy)phenyl)-2-oxa-5,7-diazaspiro[3.4]octan-6-one] | < 1

Same assay, conditions: Table 1, Compounds of Formula (I) and Formula (II); CGT enzymatic assay; read-out: IC50

Compound | IC50 [µM]
COC[C@H]1N(c2ccc(Cl)cc2)C(=O)N(c2ccc(Cl)cc2)C1(O)c1cccc(C(F)(F)F)c1 (stereo partly drawn) [Compound 92-2, (5R)-1,3-bis(4-chlorophenyl)-4-hydroxy-5-(methoxymethyl)-4-(3-(trifluoromethyl)phenyl)imidazolidin-2-one] | < 1
O=C1N(c2ccc(Cl)cc2)C2(CC2)C(O)(c2cccc(O)c2)N1c1ccc(Cl)cc1 (stereo not shown) [Example 227, 4,6-bis(4-chlorophenyl)-7-hydroxy-7-(3-hydroxyphenyl)-4,6-diazaspiro[2.4]heptan-5-one] | 1 to 10
CCCC1N(c2ccc(Br)cc2)C(=O)N(c2ccc(Br)cc2)C1(O)c1cccc(CC)c1 (stereo not shown) [Compound 88, 1,3-bis(4-bromophenyl)-4-(3-ethylphenyl)-4-hydroxy-5-propylimidazolidin-2-one] | < 1
O=C1N(c2ccc(Br)cc2)C(=O)C(O)(c2ccco2)N1c1ccc(Br)cc1 (stereo not shown) [Example 198, 1,3-bis(4-bromophenyl)-5-(furan-2-yl)-5-hydroxyimidazolidine-2,4-dione] | > 50
CCC1N(c2ccc(Br)cc2)C(=O)N(c2ccc(Br)cc2)C1(O)c1ccccc1 (stereo not shown) [Example 25, 1,3-bis(4-bromophenyl)-5-ethyl-4-hydroxy-4-phenylimidazolidin-2-one] | < 1
Cc1cccc(C2(O)CN(c3ccc(Br)cc3)C(=O)N2c2ccc(Br)cc2)c1 (stereo not shown) [Example 16, 1,3-bis(4-bromophenyl)-4-hydroxy-4-(m-tolyl)imidazolidin-2-one] | 1 to 10
O=C1N(c2ccc(Cl)cc2)C2(CCCC2)C(O)(c2cccc(OC(F)(F)F)c2)N1c1ccc(Cl)cc1 (stereo not shown) [Compound 146, 1,3-bis(4-chlorophenyl)-4-hydroxy-4-(3-(trifluoromethoxy)phenyl)-1,3-diazaspiro[4.4]nonan-2-one] | < 1
Cc1cc(C#N)cc(C2(O)CN(c3ccc(Cl)cc3)C(=O)N2c2ccc(Cl)cc2)c1 (stereo not shown) [Compound 102, 3-(1,3-bis(4-chlorophenyl)-4-hydroxy-2-oxoimidazolidin-4-yl)-5-methylbenzonitrile] | 1 to 10
CC1(C)N(c2ccc(Cl)cc2)C(=O)N(c2ccc(Cl)cc2)C1(O)c1cc(Br)cc(C#N)c1 (stereo not shown) [Example 158, 3-(1,3-bis(4-chlorophenyl)-4-hydroxy-5,5-dimethyl-2-oxoimidazolidin-4-yl)-5-bromobenzonitrile] | < 1
CCC1N(c2ccc(Cl)cc2)C(=O)N(c2ccc(Cl)cc2)C1(O)c1cccc(OC(F)(F)F)c1 (stereo in doubt) [Compound 82-1, (5S)-1,3-bis(4-chlorophenyl)-5-ethyl-4-hydroxy-4-(3-(trifluoromethoxy)phenyl)imidazolidin-2-one] | < 1
O=C1N(c2ccc(Br)cc2)CC(O)(c2ccc3ccccc3c2)N1c1ccc(Br)cc1 (stereo not shown) [Example 24, 1,3-bis(4-bromophenyl)-4-hydroxy-4-(naphthalen-2-yl)imidazolidin-2-one] | > 50
O=C1N(c2ccc(Cl)cc2)C2(CC2)C(O)(c2cccc(OC(F)F)c2)N1c1ccc(Cl)cc1 (stereo not shown) [Compound 236, 4,6-bis(4-chlorophenyl)-7-(3-(difluoromethoxy)phenyl)-7-hydroxy-4,6-diazaspiro[2.4]heptan-5-one] | < 1
Cc1ccc(N2C(=O)N(c3ccc(C)cc3)C(O)(c3cccc(OC(F)(F)F)c3)C2(C)C)cc1 (stereo not shown) [Example 176, 4-hydroxy-5,5-dimethyl-1,3-di-p-tolyl-4-(3-(trifluoromethoxy)phenyl)-imidazolidin-2-one] | < 1
N#Cc1cc(Cl)cc(-c2cn(-c3ccc(Cl)cc3)c(=O)n2-c2ccc(Cl)cc2)c1 [Compound 265, 3-(1,3-bis(4-chlorophenyl)-2-oxo-2,3-dihydro-1H-imidazol-4-yl)-5-chlorobenzonitrile] | > 50
C[C@H]1N(c2ccc(Br)cc2)C(=O)N(c2ccc(Br)cc2)C1(O)c1cccc(OC(F)(F)F)c1 (stereo partly drawn) [Compound 66-2, (5R)-1,3-bis(4-bromophenyl)-4-hydroxy-5-methyl-4-(3-(trifluoromethoxy)phenyl)imidazolidin-2-one] | < 1
Cc1csc(-c2c(C)n(-c3ccc(Br)cc3)c(=O)n2-c2ccc(Br)cc2)c1 [Compound 266, 1,3-bis(4-bromophenyl)-4-methyl-5-(4-methylthiophen-2-yl)-1,3-dihydro-2H-imidazol-2-one] | 1 to 10
O=C1N(c2ccc(Br)cc2)[C@@H](c2ccccc2)C(O)(c2ccccc2)N1c1ccc(Br)cc1 (stereo partly drawn) [Compound 86-1, (5S)-1,3-bis(4-bromophenyl)-4-hydroxy-4,5-diphenylimidazolidin-2-one] | 10 to 50
CCc1ccc(N2C(=O)N(c3ccc(CC)cc3)C(O)(c3cccc(C#N)c3)C2C)cc1 (stereo not shown) [Compound 104, 3-(1,3-bis(4-ethylphenyl)-4-hydroxy-5-methyl-2-oxoimidazolidin-4-yl)benzonitrile] | < 1
CCc1ccc(N2C(=O)N(c3ccc(CC)cc3)C(O)(c3cccc(C#N)c3)[C@H]2C)cc1 (single isomer, unassigned) [Compound 104-2] | < 1
CCC[C@H]1N(c2ccc(Br)cc2)C(=O)N(c2ccc(Br)cc2)C1(O)c1cccc(Cl)c1 (stereo partly drawn) [Compound 119-2, (5R)-1,3-bis(4-bromophenyl)-4-(3-chlorophenyl)-4-hydroxy-5-propylimidazolidin-2-one] | < 1
CC[C@H]1N(c2ccc(Br)cc2)C(=O)N(c2ccc(Br)cc2)C1(O)c1cccc(C)c1 (stereo partly drawn) [Compound 76-2, (5R)-1,3-bis(4-bromophenyl)-5-ethyl-4-hydroxy-4-(m-tolyl)imidazolidin-2-one] | < 1
N#Cc1ccc(N2CC(O)(c3ccccc3)N(c3ccc(C#N)cc3)C2=O)cc1 (stereo not shown) [Compound 111, 4,4′-(4-hydroxy-2-oxo-4-phenylimidazolidine-1,3-diyl)dibenzonitrile] | > 50
O=C1N(c2ccc(Cl)cc2)[C@]2(CCOC2)[C@](O)(c2cccc(OC(F)(F)F)c2)N1c1ccc(Cl)cc1 [Compound 234-1, (4R,5S)-1,3-bis(4-chlorophenyl)-4-hydroxy-4-(3-(trifluoromethoxy)phenyl)-7-oxa-1,3-diazaspiro[4.4]nonan-2-one] | < 1
CC[C@H]1N(c2ccc(F)cc2)C(=O)N(c2ccc(F)cc2)C1(O)c1cccc(C#N)c1 (stereo partly drawn) [Compound 123-2, 3-((5R)-5-ethyl-1,3-bis(4-fluorophenyl)-4-hydroxy-2-oxoimidazolidin-4-yl)benzonitrile] | < 1
C[C@]1(C(F)(F)F)N(c2ccc(Cl)cc2)C(=O)N(c2ccc(Cl)cc2)C1(O)c1cccc(C#N)c1 (single isomer, unassigned) [Example 177-1] | < 1
COc1cccc(C2(O)CN(c3ccc(Br)cc3)C(=O)N2c2ccc(Br)cc2)c1 (stereo not shown) [Example 30, 1,3-bis(4-bromophenyl)-4-hydroxy-4-(3-methoxyphenyl)imidazolidin-2-one] | 1 to 10
O=C1N(c2ccc(Br)cc2)CC(O)(c2cccc(OC(F)(F)F)c2)N1c1ccc(Br)cc1 (stereo not shown) [Compound 58, 1,3-bis(4-bromophenyl)-4-hydroxy-4-(3-(trifluoromethoxy)phenyl)imidazolidin-2-one] | < 1
N#Cc1cc(Cl)cc(C2(O)CN(c3ccc(Br)cc3)C(=O)N2c2ccc(Cl)cc2)c1 (stereo not shown) [Compound 110, 3-(1-(4-bromophenyl)-3-(4-chlorophenyl)-4-hydroxy-2-oxoimidazolidin-4-yl)-5-chlorobenzonitrile] | < 1
